From patent US11447493B2 (Kinnate Biopharma Inc., priority 2018, dated 2022)

How the values were obtained:
CDK12 = CDK12 (Homo sapiens (Human), UniProt Q9NYV4); experiment: Radiometric protein kinase assay (33PanQinase), Assay Condition B (thiol-free); assay type: biochemical; conditions: thiol-free (1 mM TCEP)
Experimental: The IC50 profile of compounds was determined using one protein kinase in a customized, thiol free assay. […] Prior to testing, the 1×10^−03 M stock solutions in column 2 of the master plates were subjected to a serial, semi-logarithmic dilution using 100% DMSO as a solvent. […] Column 1 and 7 were filled with 100% DMSO as controls. Subsequently, 2×10 microliter from each well of the serial diluted copy plates were aliquoted with a 96 channel pipettor into two identical sets of “compound dilution plates”. All plates were barcoded for automated identification and tracking purposes. […] All compounds were stored as powder until being solubilized in DMSO. Solubilized compounds were stored as 1×10^−02M/100% DMSO stock solutions. Prior to the assay process, 90 microliters of H2O were added to each well of a set of compound dilution plates. To minimize potential precipitation, the H2O was added to each plate only a few minutes before the transfer of the compound solutions into the assay plates. Each plate was shaken thoroughly, resulting in compound dilution plates with a final of 10% DMSO. For each assay, 5 microliters of solution from each well of the compound dilution plates/10% DMSO were transferred into the assay plate. The final volume of the assay was 50 μl. All compounds were tested at 10 final assay concentrations in the range from 1×10^−05M to 3×10^−10 M, in singlicate. The final DMSO concentration in the reaction cocktails was 1% in all cases. […] This was done so there would be no interference with the key cysteines in the proteins of interest.
For data analysis, the median value of the counts in column 1 (n=8) of each assay plate was defined as “low control”. This value reflects unspecific binding of radioactivity to the plate in the absence of a protein kinase but in the presence of the substrate. The median value of the counts in column 7 of each assay plate (n=8) was taken as the “high control”, i.e. full activity in the absence of any inhibitor. The difference between high and low control was taken as 100% activity. As part of the data evaluation the low control value from a particular plate was subtracted from the high control value as well as from all 80 “compound values” of the corresponding plate. The residual activity (in %) for each well of a particular plate was calculated by using the following formula: Res. Activity (%)=100×[(cpm of compound−low control)/(high control−low control)]
The fitting method used was a least-squares fit.

CDK2 = CDK2 (Homo sapiens (Human), UniProt P24941); experiment: as above; assay type: biochemical; conditions: thiol-free (1 mM TCEP)
Experimental: The IC50 profile of compounds was determined using one protein kinase in a customized, thiol free assay. […] Prior to testing, the 1×10^−03 M stock solutions in column 2 of the master plates were subjected to a serial, semi-logarithmic dilution using 100% DMSO as a solvent. […] Column 1 and 7 were filled with 100% DMSO as controls. Subsequently, 2×10 microliter from each well of the serial diluted copy plates were aliquoted with a 96 channel pipettor into two identical sets of “compound dilution plates”. All plates were barcoded for automated identification and tracking purposes. […] All compounds were stored as powder until being solubilized in DMSO. Solubilized compounds were stored as 1×10^−02M/100% DMSO stock solutions. Prior to the assay process, 90 microliters of H2O were added to each well of a set of compound dilution plates. To minimize potential precipitation, the H2O was added to each plate only a few minutes before the transfer of the compound solutions into the assay plates. Each plate was shaken thoroughly, resulting in compound dilution plates with a final of 10% DMSO. For each assay, 5 microliters of solution from each well of the compound dilution plates/10% DMSO were transferred into the assay plate. The final volume of the assay was 50 μl. All compounds were tested at 10 final assay concentrations in the range from 1×10^−05M to 3×10^−10 M, in singlicate. The final DMSO concentration in the reaction cocktails was 1% in all cases. […]
For data analysis, the median value of the counts in column 1 (n=8) of each assay plate was defined as “low control”. This value reflects unspecific binding of radioactivity to the plate in the absence of a protein kinase but in the presence of the substrate. […] The residual activity (in %) for each well of a particular plate was calculated by using the following formula: Res. Activity (%)=100×[(cpm of compound−low control)/(high control−low control)]
The residual activities for each concentration and the compound IC50 values were calculated using Quattro Workflow V3.1.1 (Quattro Research GmbH, Munich, Germany; www.quattro-research.com). […]

CDK12 wt/CycK = CDK12 wt/CycK (Homo sapiens (Human), UniProt Q9NYV4); experiment: Radiometric protein kinase assay (33PanQinase), Assay Condition A (thiol containing); assay type: biochemical; conditions: thiol containing (1.2 mM DTT), ATP 0.3 μM
CDK12 wt/CycK, sequence (Q9NYV4 whole entry): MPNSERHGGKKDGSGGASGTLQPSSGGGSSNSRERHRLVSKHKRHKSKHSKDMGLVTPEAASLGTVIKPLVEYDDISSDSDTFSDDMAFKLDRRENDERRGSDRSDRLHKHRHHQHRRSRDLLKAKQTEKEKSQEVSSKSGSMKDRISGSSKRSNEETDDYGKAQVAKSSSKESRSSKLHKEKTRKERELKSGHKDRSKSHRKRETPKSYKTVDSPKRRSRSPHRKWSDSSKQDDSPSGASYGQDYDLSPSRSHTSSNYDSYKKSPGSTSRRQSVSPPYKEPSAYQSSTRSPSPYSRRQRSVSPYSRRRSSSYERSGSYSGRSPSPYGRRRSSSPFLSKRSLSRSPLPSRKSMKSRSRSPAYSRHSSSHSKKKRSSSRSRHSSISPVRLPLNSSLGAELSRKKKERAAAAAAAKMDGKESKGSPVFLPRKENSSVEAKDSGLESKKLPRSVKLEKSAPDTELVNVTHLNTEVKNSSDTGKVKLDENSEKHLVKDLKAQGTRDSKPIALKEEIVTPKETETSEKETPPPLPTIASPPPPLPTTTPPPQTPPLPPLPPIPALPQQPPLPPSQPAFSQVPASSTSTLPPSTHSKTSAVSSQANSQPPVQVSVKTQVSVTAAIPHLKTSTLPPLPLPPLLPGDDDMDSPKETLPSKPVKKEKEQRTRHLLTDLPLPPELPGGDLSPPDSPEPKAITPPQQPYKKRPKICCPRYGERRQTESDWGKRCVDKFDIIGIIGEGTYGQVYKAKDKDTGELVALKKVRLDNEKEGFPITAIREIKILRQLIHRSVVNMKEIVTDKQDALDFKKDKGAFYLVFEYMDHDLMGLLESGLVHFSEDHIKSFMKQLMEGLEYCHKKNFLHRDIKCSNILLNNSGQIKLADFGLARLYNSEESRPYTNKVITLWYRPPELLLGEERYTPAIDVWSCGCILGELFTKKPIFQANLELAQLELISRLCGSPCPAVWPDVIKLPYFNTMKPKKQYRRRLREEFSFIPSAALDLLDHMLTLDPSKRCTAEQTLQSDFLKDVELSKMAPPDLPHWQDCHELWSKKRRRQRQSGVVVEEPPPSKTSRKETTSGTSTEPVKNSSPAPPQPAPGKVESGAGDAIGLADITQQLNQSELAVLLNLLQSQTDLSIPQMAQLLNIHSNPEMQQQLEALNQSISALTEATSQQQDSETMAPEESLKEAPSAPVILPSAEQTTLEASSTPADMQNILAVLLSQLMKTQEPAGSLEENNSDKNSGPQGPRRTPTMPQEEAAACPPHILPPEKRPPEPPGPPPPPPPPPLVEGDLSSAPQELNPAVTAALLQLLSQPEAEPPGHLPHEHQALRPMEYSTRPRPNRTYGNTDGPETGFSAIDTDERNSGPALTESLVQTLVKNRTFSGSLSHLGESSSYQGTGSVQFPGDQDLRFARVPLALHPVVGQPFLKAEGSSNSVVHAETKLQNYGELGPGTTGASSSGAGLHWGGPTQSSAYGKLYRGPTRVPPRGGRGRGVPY
CDK12 wt/CycK, sequence (O75909 whole entry partner): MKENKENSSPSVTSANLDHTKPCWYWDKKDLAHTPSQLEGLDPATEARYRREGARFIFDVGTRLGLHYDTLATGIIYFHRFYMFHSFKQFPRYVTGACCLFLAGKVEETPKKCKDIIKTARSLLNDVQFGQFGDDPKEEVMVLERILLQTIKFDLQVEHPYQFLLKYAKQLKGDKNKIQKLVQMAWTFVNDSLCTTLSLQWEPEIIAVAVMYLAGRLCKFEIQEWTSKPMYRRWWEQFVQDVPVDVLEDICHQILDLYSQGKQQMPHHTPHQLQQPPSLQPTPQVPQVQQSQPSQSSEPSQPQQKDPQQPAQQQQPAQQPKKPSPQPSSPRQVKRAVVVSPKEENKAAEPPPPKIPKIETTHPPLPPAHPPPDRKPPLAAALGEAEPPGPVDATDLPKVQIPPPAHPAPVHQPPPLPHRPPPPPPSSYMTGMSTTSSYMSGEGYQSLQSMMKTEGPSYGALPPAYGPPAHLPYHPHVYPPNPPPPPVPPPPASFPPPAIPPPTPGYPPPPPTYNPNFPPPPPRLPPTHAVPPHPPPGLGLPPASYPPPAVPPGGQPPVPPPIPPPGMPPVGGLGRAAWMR
Procedure, shortened: (§1)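 Recombinant human kinases assayed radiometrically (33PanQinase) with 33P-ATP incorporation into substrate, 60 min at 30° C, thiol-containing buffer, 1% DMSO final. Ten concentrations from 1×10^−04M to 3×10^−09M tested in singlicate. Residual activity normalized to no-enzyme and no-inhibitor controls; IC50 by least-squares fit.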

CDK2/CycA2 = CDK2/CycA2 (Homo sapiens (Human), UniProt P24941); experiment: as above; assay type: biochemical; conditions: thiol containing (1.2 mM DTT), ATP 0.3 μM
Procedure, shortened: as §1

CDK7/CycH/MAT1 = CDK7/CycH/MAT1 (Homo sapiens (Human), UniProt P50613); experiment: as above; assay type: biochemical; conditions: thiol containing (1.2 mM DTT), ATP 3.0 μM
CDK7/CycH/MAT1, sequence (P50613 whole entry): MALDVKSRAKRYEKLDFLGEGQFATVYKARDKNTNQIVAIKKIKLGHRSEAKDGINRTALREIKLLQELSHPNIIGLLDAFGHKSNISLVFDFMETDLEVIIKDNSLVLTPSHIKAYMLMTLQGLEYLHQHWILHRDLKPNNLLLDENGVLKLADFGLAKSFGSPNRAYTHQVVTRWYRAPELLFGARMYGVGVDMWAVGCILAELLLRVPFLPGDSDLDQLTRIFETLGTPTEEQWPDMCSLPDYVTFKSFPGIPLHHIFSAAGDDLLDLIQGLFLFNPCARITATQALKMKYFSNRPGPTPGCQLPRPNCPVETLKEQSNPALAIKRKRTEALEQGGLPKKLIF
CDK7/CycH/MAT1, sequence (P51946 whole entry partner): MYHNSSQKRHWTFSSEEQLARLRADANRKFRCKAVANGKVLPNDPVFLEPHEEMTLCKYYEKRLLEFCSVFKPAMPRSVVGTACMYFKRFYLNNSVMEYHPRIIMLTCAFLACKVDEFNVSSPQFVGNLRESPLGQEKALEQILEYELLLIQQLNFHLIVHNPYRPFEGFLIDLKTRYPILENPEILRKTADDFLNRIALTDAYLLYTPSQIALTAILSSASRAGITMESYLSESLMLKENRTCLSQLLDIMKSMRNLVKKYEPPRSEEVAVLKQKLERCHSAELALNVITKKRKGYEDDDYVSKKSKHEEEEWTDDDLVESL
CDK7/CycH/MAT1, sequence (P51948 whole entry partner): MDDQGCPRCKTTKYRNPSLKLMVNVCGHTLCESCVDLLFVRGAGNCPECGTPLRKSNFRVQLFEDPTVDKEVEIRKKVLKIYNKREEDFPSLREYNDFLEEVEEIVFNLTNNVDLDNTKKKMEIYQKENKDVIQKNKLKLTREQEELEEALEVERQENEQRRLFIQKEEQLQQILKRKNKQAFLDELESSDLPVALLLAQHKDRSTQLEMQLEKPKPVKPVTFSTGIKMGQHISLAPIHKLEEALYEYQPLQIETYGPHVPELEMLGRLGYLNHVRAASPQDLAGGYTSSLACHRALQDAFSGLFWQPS
Procedure, shortened: as §1

[1] = system: panel of 1,151 cancer cell lines; conditions: in 52% of a panel of 1,151 cancer cell lines (Kwiatkowski, 2014); cited from earlier work

CDK12, sequence (Q9NYV4 whole entry): as the sequence (Q9NYV4 whole entry) above
CDK12, sequence (O75909 whole entry partner): as the sequence (O75909 whole entry partner) above

Row | SMILES | IC50 (CDK12) [nM] | IC50 (CDK2) [nM] | IC50 (CDK12 wt/CycK) [nM] | IC50 (CDK2/CycA2) [nM] | IC50 (CDK7/CycH/MAT1) [nM] | IC50 [1] [nM]
1 | C=CC(=O)Nc1ccc(C(=O)N2CC[C@@H](Nc3ncc4ccccc4n3)C2)cc1C [Example 72, (R)—N-(2-methyl-4-(3-(quinazolin-2-ylamino)pyrrolidine-1-carbonyl)phenyl)acrylamide] | < 100 | 1000 to 10000 | ≤ 100 | 1000 to 10000 | 1000 to 10000 | 
2 | C=CC(=O)Nc1ccc(C(=O)N2CC[C@@H](Nc3ncc4ccccc4n3)C2)cc1Cl [Example 88, (R)—N-(2-chloro-4-(3-(quinazolin-2-ylamino)pyrrolidine-1-carbonyl)phenyl)acrylamide] | < 100 | 1000 to 10000 | ≤ 100 | 1000 to 10000 |  | 
3 | CN(C)C/C=C/C(=O)Nc1ccc(C(=O)Nc2cccc(Nc3ncc(Cl)c(-c4c[nH]c5ccccc45)n3)c2)cc1 [THZ1] |  |  |  |  |  | < 200
